# Marks after values point to notes of the source that are not given here.
# Columns and labels:
# Escherichia coli = assay: Pathogen inactivation in RBC units (log reduction); type: cell-based
# Serratia marcescens = assay: Pathogen inactivation in RBC units (log reduction); type: cell-based
# Yersinia enterocolitica = type: cell-based
# Staphylococcus aureus = assay: Pathogen inactivation in RBC units (log reduction); type: cell-based
# [1] = system: Vesicular stomatitis virus (VSV); type: cell-based
# Pseudomonas aerugenosa = assay: Low level input full unit inactivation in RBC units; type: cell-based, Pseudomonas aeruginosa
# P. aeruginosa = assay: Pathogen inactivation in RBC units (log reduction), high level input; type: cell-based, Pseudomonas aeruginosa
# Protocol: Bacteria: Frozen working stocks of bacteria were inoculated into a 500 mL flask containing a mixture of 50% yeast extract media without added glucose and 50% fetal bovine serum. The flasks were incubated overnight in a shaking waterbath set at 37° C. Gram positive bacteria were spiked into the blood product directly from the overnight culture. The overnight cultures of Gram negative bacteria were further subcultured by a 1:1000 dilution into fresh culture medium and incubated as above until they reach log phase as determined by optical density. This log phase growth was spiked into the blood product for PI experiments.
# The PI process involves inoculation of RBC units with a culture of the organism to be tested. The typical target input titer of organisms in the RBC units was approximately 10^6 cfu or pfu/mL of RBC. In most cases the organism volume (including any culture medium) was approximately 1% of the RBC unit volume and was not typically greater than 10%. To evaluate inactivation of lower, more physiologically relevant, levels of bacteria, inputs from 10 to 10^5 cfu/unit were used.
# The dosing solutions were prepared and added to the units as follows: A 600 mM Glutathione (GSH) solution with 1 equivalent of NaOH was prepared by dissolving 2.8 g of GSH in ˜12 mL of 0.9% saline and 0.9 mL of 10 N NaOH. The appropriate volume of GSH solution was drawn into a 20 mL capacity syringe. The volume used was typically 10 mL of GSH solution per 280 mL of RBC, plus 2 mL line loss to generate 20 mM GSH in the dosed RBC unit. The syringe containing GSH was attached to the mixing container using the filtered lead that shares a Y fitting with the lead connected to the incubation container. The unit was placed on a rocker to facilitate top to bottom mixing during addition of dosing solutions. The GSH was added to the unit while the unit is mixing on the rocker. […]
# Log reduction for each unit was determined by taking the log of the ratio of pre-treatment titer to post-treatment titer, where titers were expressed as 10×cfu or pfu/mL. […]
# [2] = diluted SAG-M RBC units, 20 mM GSH sodium salt, 0.2 mM S-303, 3 hour incubation, n = 4
# [3] = high level input, 130 μM S-303, 13 mM GSH (1 b.e.), diluted with diluent solution, 3 h RT, N = 2
# [4] = high level input, 200 μM S-303, 20 mM GSH (1 b.e.), without leukofiltration, 3 h RT, N = 2
# [5] = high level input, 200 μM S-303, 20 mM GSH (1 b.e.), 3 h RT, N = 2
# [6] = low level input, 200 μM S-303, 20 mM GSH (1 b.e.), RT 20 hours then 37° C. ~20 hours
smiles,measurement,setting,value
"O=C(CCNc1c2ccccc2nc2ccccc12)OCCN(CCCl)CCCl [S-303, β-alanine, N-(acridin-9-yl), 2-[bis(2-chloroethyl)amino]ethyl ester]","Log Reduction GSH (20 mM), 1 b.e.",Escherichia coli,5.9 ± 0.8 log
same,"Log Reduction GSH (20 mM), 2 b.e.",Escherichia coli,6.5 log
same,Average Log Kill,Escherichia coli; [2],≥6.69 log
same,"Mean Log10 Reduction, 40% Hematocrit",Escherichia coli; [3],6.6 log10
same,"Mean Log10 Reduction, 60% Hematocrit","Escherichia coli; high level input, 200 μM S-303, 20 mM GSH (1 b.e.), 3 h RT, n = 3",6.1^c log10
same,"Mean Log10 Reduction, 80% Hematocrit",Escherichia coli; [4],3.8^b log10
same,"Log Reduction GSH (20 mM), 1 b.e.",Serratia marcescens,3.7 ± 0.4 log
same,"Log Reduction GSH (20 mM), 2 b.e.",Serratia marcescens,4.8 log
same,Average Log Kill,Serratia marcescens; [2],4.20 log
same,"Mean Log10 Reduction, 40% Hematocrit",Serratia marcescens; [3],3.1 log10
same,"Mean Log10 Reduction, 60% Hematocrit",Serratia marcescens; [5],4.5 log10
same,"Mean Log10 Reduction, 80% Hematocrit",Serratia marcescens; [4],4.4^b log10
same,"Log Reduction GSH (20 mM), 1 b.e.","Yersinia enterocolitica; Y. enterocolitica, 0.2 mM S-303, 20 mM GSH with 1 equivalent NaOH, AS-3 RBC ~60% hematocrit, 3 h at 20 to 25° C.",5.0 ± 0.4 log
same,"Log Reduction GSH (20 mM), 2 b.e.","Yersinia enterocolitica; Y. enterocolitica, previous conditions, GSH neutralized with 2 equivalents NaOH",4.6 log
same,Average Log Kill,Yersinia enterocolitica; [2],≥6.57 log
same,"Mean Log10 Reduction, 40% Hematocrit",Yersinia enterocolitica; [3],6.1 log10
same,"Mean Log10 Reduction, 60% Hematocrit",Yersinia enterocolitica; [5],4.9 log10
same,"Mean Log10 Reduction, 80% Hematocrit",Yersinia enterocolitica; [4],3.4^b log10
same,"Log Reduction GSH (20 mM), 1 b.e.",Staphylococcus aureus,6.0 ± 0.3 log
same,"Log Reduction GSH (20 mM), 2 b.e.",Staphylococcus aureus,6.4 log
same,Average Log Kill,Staphylococcus aureus; [2],4.15 log
same,"Mean Log10 Reduction, 40% Hematocrit",Staphylococcus aureus; [3],>7 log10
same,"Mean Log10 Reduction, 60% Hematocrit",Staphylococcus aureus; [5],6.7 log10
same,"Mean Log10 Reduction, 80% Hematocrit",Staphylococcus aureus; [4],≥5.8^b log10
same,"Log Reduction GSH (20 mM), 1 b.e.",[1],>5.9 log
same,"Log Reduction GSH (20 mM), 2 b.e.",[1],4.2 log
same,"Mean Log10 Reduction, 40% Hematocrit",[1]; N = 2,5.9 log10
same,"Mean Log10 Reduction, 60% Hematocrit",[1]; N = 2,>5.9 log10
same,"Mean Log10 Reduction, 80% Hematocrit",[1]; N = 2,>6.2^b log10
same,Pathogen inactivation of Pseudomonas aeruginosa,Pseudomonas aerugenosa,complete inactivation
same,"Full Unit Inactivation, 40% Hematocrit","Pseudomonas aerugenosa; low level input, 130 μM S-303, 13 mM GSH (1 b.e.), RT 20 hours then 37° C. ~20 hours",≥2.5 log10
same,"Full Unit Inactivation, 60% Hematocrit",Pseudomonas aerugenosa; [6],≥2.5 log10
same,"Full Unit Inactivation, 80% Hematocrit",Pseudomonas aerugenosa; [6],≥2.7 log10
same,"Log Reduction GSH (20 mM), 1 b.e.","P. aeruginosa; P. aeruginosa, 0.2 mM S-303, 20 mM GSH with 1 equivalent NaOH, AS-3 RBC ~60% hematocrit, 3 h at 20 to 25° C.",1.2 ± 0.4 log
same,"Log Reduction GSH (20 mM), 2 b.e.","P. aeruginosa; P. aeruginosa, previous conditions, GSH neutralized with 2 equivalents NaOH",1.8 log
same,Average Log Kill,P. aeruginosa; [2],3.35 log

# Reference: US10357516B2 (priority 2008, dated 2019)
